The text below walks through data of PMC7646544, “Scaffold hopping and optimisation of 3’,4’-dihydroxyphenyl- containing thienopyrimidinones: synthesis of quinazolinone derivatives as novel allosteric inhibitors of HIV-1 reverse transcriptase-associated ribonuclease H” (Journal of Enzyme Inhibition and Medicinal Chemistry, 2020).

The target of test [1] is T1, wt HIV-1 RT-associated RNase H (Human immunodeficiency virus type 1 group M subtype B, UniProt P04585).
T1 construct: dynamics at the p66/p51 HIV-1 RT-RNase H dimer interface; made in house
Particulars: wild type RT, cited from earlier work.

For test [2], the target named is p66/p51C280A mutant HIV-1 RNase H (Human immunodeficiency virus type 1 group M subtype B, UniProt P04585, C867A). The arrangement: made in house; method as in PMID 24261890. Particulars: p66/p51 C280A mutant RT; cited from earlier work.
In test [3] the target is T2, HIV-1 RT-associated RDDP (Human immunodeficiency virus type 1 group M subtype B, UniProt P04585).
T2 construct: dynamics at the p66/p51 HIV-1 RT-RNase H dimer interface; made in house
As to the kind of experiment: HIV-1 RNA-dependent DNA polymerase activity determination. Particulars: wt RT, poly(A)-oligo(dT). The format is biochemical. The procedure: HIV-1 RT-associated RDDP activity was measured as described[17]^,[38]. Briefly, in 25 μL volume containing 60 mM Tris-HCl pH 8.1, 8 mM MgCl2, 60 mM KCl, 13 mM DTT, poly(A)-oligo(dT), 100 μM dTTP, and 6 ng wt RT. After enzyme addition, the reaction mixture was incubated for 30 min at 37 °C and stopped by addition of EDTA. […] All assays were performed in triplicate.

Test [4] addresses T3, HIV-1 IN in the presence of LEDGF/p75 (Human immunodeficiency virus type 1 group M subtype B, UniProt P04585).
T3 construct: made in house
In words: HTRF IN LEDGF/p75-dependent assay. The format is biochemical. The method, then:
The IN LEDGF/p75-dependent assay measures inhibition of IN activity in the presence of LEDGF/p75 protein[35–37]. Briefly, 50 nM IN was pre-incubated with increasing concentration of compounds for 1 h at room temperature in reaction buffer containing 20 mM HEPES pH 7.5, 1 mM DTT, 1% Glycerol, 20 mM MgCl2, 0.05% Brij-35 and 0.1 mg/ml BSA. To this mixture, 9 nM DNA donor substrate (5′-[…]-Biotin-3′ annealed with 5′-[…]-Biotin3’) and 50 nM DNA acceptor substrate (5′-Cy5-[…]-3′ annealed with 5′-Cy5- […]-3′) and 50 nM LEDGF/p75 were added and incubated at 37 °C for 90 min.
On the technique in general: Time-resolved FRET reads energy transfer from a long-lived donor to a nearby acceptor.

Test [5] addresses T1, wt HIV-1 RT-associated RNase H. As to the kind of experiment: RNase H inhibitor analysis, wild type RT (fluorescent RNA/DNA hybrid). The following applies: compared with decorated quinazolinone 2. It counts as biochemical. The procedure: All assays were performed in triplicate.

Read-outs that look alike come from different tables or passages of the source.

By IC50 is commonly meant the concentration needed to halve the response being measured.

As to `Cc1ccc2nc(-c3ccc(O)c(O)c3)[nH]c(=O)c2c1` [Compound 2, 2–(3,4-dihydroxyphenyl)-6-methylquinazolin-4(3H)-one], the IC50 in test [1] (read-out: IC50 WT RNase H) was 0.41 ± 0.01 µM; in test [2], 0.37 ± 0.01 µM; in test [3] it was more than 100 µM; in test [4] it was 4.3 ± 1.5 µM.
In the case of `O=c1[nH]c(-c2ccc(O)c(O)c2)nc2ccccc12` [Compound 17, 2–(3,4-dihydroxyphenyl)quinazolin-4(3H)-one], the concentration for half-maximal inhibition (IC50) in test [1] (read-out: IC50 (µM) WT RNase H) was 3.46 ± 0.47 µM; in test [3] it was 70 ± 1 µM; in test [4], 1.44 ± 0.4 µM. The “fold less potent HIV-1 RNase H inhibitor” value in test [5] came out at 8 fold.
